Like-named read-outs stand apart in the source and are kept apart here.
Key:
[1] = in vitro; format: cell-based; conditions: human, 72 h, MTS
Procedure: (§1) THP-1 (human monocyte cell line) cells were cultivated in RPMI medium supplemented with 10% foetal calf serum (FCS) (Cultilab, Campinas, SP, BR) and 1% penicillin and streptomycin (pen/strep—Sigma-Aldrich) at 37°C under 5% CO2, and HFF-1 (human fibroblast) and HepG2 (hepatocytes) cells were cultivated in DMEM without phenol red (Cultilab) supplemented with 10% FBS (Sigma-Aldrich) and 1% pen/strep at 37°C under 5% CO2.
The cytotoxicity of the compounds against HFF-1 fibroblasts and HepG2 hepatocytes was evaluated using the MTS tetrazolium assay (Promega, Madison, WI, USA). HFF-1 fibroblasts were seeded at 4x10^3/well in 96-well culture plates in DMEM without phenol red and incubated overnight (37°C, 5% CO2). HepG2 hepatocytes were seeded at 7x10^3/well in 96-well culture plates in DMEM (Cultilab) with supplements (10% FCS, 1% pen/strep) and incubated overnight (37°C, 5% CO2). The compounds were added in 2-fold serial dilutions at the same concentrations described before, and the plates were incubated as described before. Each compound concentration was evaluated in duplicate. All the plates included doxorubicin (DOX) (Sigma-Aldrich) as a positive control (10–0.01 μM) and untreated wells as a negative control (100% growth). After 72 h, 15 μL of MTS (Promega) was added, and the plates were incubated for 4 h. The absorbance was measured at 490 nm in an automated SpectraMax 384 microplate reader (Sunnyvale, CA, USA), and the data were analysed using GraphPad Prism version 8.0 for CC50 value calculation. The percentage of nonviable cells was determined and compared to the negative control wells (100% growth).

[2] = test system: intracellular T. cruzi Tulahuen LacZ amastigotes; experiment: microbe, parasite or virus in culture; format: cell-based, Trypanosoma cruzi; conditions: for IC50: Trypanosoma cruzi, intracellular amastigotes, Tulahuen LacZ, HFF-1 host cells, 120 h, read-out: T. cruzi IC50 (μM ± SD); for SI^1 (CC50 HFF-1/IC50 T. cruzi) / SI^3 (CC50 HepG2/IC50 T. cruzi): selectivity index
Procedure: The epimastigote forms of the T. cruzi Tulahuen strain, which expresses the E. coli β-galactosidase gene lacZ [11], were grown in liver infusion tryptone (LIT) supplemented with 10% FCS (Cultilab) and 1% pen/strep (Sigma–Aldrich) at 28°C. Metacyclogenesis from epimastigotes to trypomastigotes was induced by the incubation of the epimastigotes in Grace’s insect medium (Sigma-Aldrich, 28°C) every 5 days. After 5 days, the trypomastigote forms were used to infect the HFF-1 cells. The promastigote forms of L. infantum were maintained in Schneider’s insect medium (Sigma-Aldrich) supplemented with 10% FCS (Cultilab) and 1% pen/strep (Sigma-Aldrich) at 28°C and subcultured every 6 or 7 days.
In vitro assays against T. cruzi were performed as described previously. HFF-1 human fibroblasts were seeded at 4x10^3/well in 96-well tissue culture plates in DMEM (Cultilab) without phenol red and then incubated overnight (37°C, 5% CO2). Next, trypomastigotes were added at 4x10^4/well, and the plates were incubated (37°C, 5% CO2). After 24 h, 2-fold serial dilutions of the test compounds were added at concentrations ranging from 64 to 0.12 μM, and the plates were then incubated (37°C, 5% CO2). Each compound concentration was evaluated in duplicate. All the plates included BZ (64–0.12 μM) (Sigma-Aldrich) as a positive control and untreated wells (100% growth) as a negative control. After 120 h, chlorophenol red β-D-galactopyranoside (CPRG, Sigma-Aldrich) was added to each well. The absorbance was measured at 570 nm in an automated SpectraMax 384 microplate reader (Sunnyvale, CA, USA), and the data were analysed using GraphPad Prism version 8.0 (San Diego, CA, USA) for IC50 value calculation.
The analyses were performed using GraphPad Prism version 8.0 (GraphPad Software, San Diego, CA, USA). Both the IC50 and CC50 values were calculated by adjusting the sigmoid dose-response curves, and the selectivity index (SI) values were determined by CC50/IC50 [16]. Statistical analyses were performed using one-way ANOVA followed by Dunnett’s multiple comparison test.

[3] = test system: T. cruzi; experiment: Screening of natural product collection against T. cruzi (cell infection assay); format: cell-based; conditions: Trypanosoma cruzi; compound concentration of 50 μM
Procedure: A screening of a natural product collection was performed by using cell assays for infection with Trypanosoma cruzi and Leishmania infantum. The collection includes 320 compounds from the metabolic classes terpenes, alkaloids, peptides and amides that were isolated by plant species or endophytic fungi. For further evaluation in this study, cytochalasins A-D (CAS numbers: CytA: 14110-64-6, CytB: 14930-96-2, CytC: 22144-76-9, CytD: 22144-77-0) were obtained from Sigma-Aldrich (St. Louis, MO, USA). The purity of these compounds was ≥97%. The stock solution of the compounds was prepared in 100% DMSO (dimethyl sulfoxide—Sigma-Aldrich).

[4] = in vitro; format: cell-based; conditions: human; 72 h, resazurin; read-out: THP-1 CC50 (μM ± SD)
Procedure: as §1
THP-1 cells were seeded at 2x10^4/well in 96-well culture plates in RPMI 1640 supplemented (10% FCS, 1% pen/strep) and incubated overnight (37°C, 5% CO2). The compounds were added in 2-fold serial dilutions (64–0.12 μM), and the plates were incubated as described before. Each compound concentration was evaluated in duplicate. All the plates included DOX (Sigma-Aldrich) as a positive control (10–0.01 μM) and untreated wells as a negative control (100% growth). After 72 h, 20 μL of resazurin (Sigma-Aldrich) was added, and the plates were incubated for 4 h. The absorbance was measured at 536 and 588 nm in an automated microplate reader SpectraMax Gemini, and the data were analysed using GraphPad Prism version 8.0 for CC50 value calculation. The percentage of nonviable cells was determined and compared to the negative control wells (100% growth).

SMILES	CC50 ([1]; read-out: HFF-1 CC50 (μM ± SD)) [µM]	CC50 ([1]; read-out: HepG2 CC50 (μM ± SD)) [µM]	IC50 [2] [µM]	SI^1 (CC50 HFF-1/IC50 T. cruzi) [2]	SI^3 (CC50 HepG2/IC50 T. cruzi) [2]	inhibition at 50 µM [3] [%]	CC50 [4] [µM]
CC(=O)OC1C=CC(C)(O)C(=O)C(C)CC=CC2C(O)C(C)=C(C)C3C(Cc4ccccc4)NC(=O)C123 (stereo not shown) [Cytochalasin C]	76.3 ± 3.12	22.5 ± 6.47	10.2 ± 1.13	7.45	2.19	72.8	84.8 ± 6.84
C=C1[C@@H](C)[C@H]2[C@H](Cc3ccccc3)NC(=O)[C@]23OC(=O)/C=C/[C@H](O)CCC[C@@H](C)C/C=C/[C@H]3[C@@H]1O [Cytochalasin B]	21.8 ± 3.57	46.3 ± 19.3	16.9 ± 1.47	1.29	2.74	79.4	109 ± 2.4
C=C1[C@@H](C)[C@H]2[C@H](Cc3ccccc3)NC(=O)[C@]23[C@H](OC(C)=O)/C=C/[C@@](C)(O)C(=O)[C@@H](C)C/C=C/[C@H]3[C@@H]1O [Cytochalasin D]	96.5 ± 10	123 ± 20	20.2 ± 3.27	4.78	6.11	69.5	122 ± 11.3
C=C1[C@@H](C)[C@H]2[C@H](Cc3ccccc3)NC(=O)[C@]23OC(=O)/C=C/C(=O)CCC[C@@H](C)C/C=C/[C@H]3[C@@H]1O [Cytochalasin A]	27.07 ± 0.17	21.1 ± 4.51	3.02 ± 2.16	8.96	6.99	99.7	17 ± 1.34

Source: PMC9529094, “Identification of natural cytochalasins as leads for neglected tropical diseases drug discovery” (PLoS ONE, 2022)
